# Like-named read-outs stand apart in the source and are kept apart here.
# Legend:
# CRAMP [1] = assay: Inhibition by glycosaminoglycans of S. aureus killing by CRAMP; format: cell-based, mouse; details: 0.5 μM CRAMP; for Inhibition of S. aureus killing by CRAMP: 5 μg/mL glycosaminoglycan, ~500 cfu USA300, phosphate buffer pH 7.4, 2 h at 37°C, n = 6
# Experimental: (§1) Samples were plated onto TSA plates, and viable bacteria (cfu) were counted the following day. Data are shown as % bacterial killing, where killing activity in the presence of cathelicidin only represents 100% (n = 6, *p < 0.05, ****p < 0.0001, one-way ANOVA, multiple comparisons).
# (§2) (A) Schematics of HS/HP structure. […] (F) BaclightGreen-labeled S. aureus (~400 cfu) was incubated with 0.5 μM CRAMP without or with 5 μg/mL HP, NDS-HP, 2ODS-HP, 6ODS-HP, H, NS-H, or NS2OS-H for 30 min at room temperature. Bacteria were washed, incubated with 10 μg/mL propidium iodide for 15 min at 4°C, and live (green) and dead (red) bacteria were visualized by fluorescence microscopy.
# (§3) Late log phase S. aureus USA300 was washed with phosphate buffer (8.2 mM Na2HPO4, 1.8 mM KH2PO4, pH 7.4) and approximately 500 cfu were incubated with cathelicidins with or without excess GAGs for 2 h at 37°C as indicated. Viable bacteria were enumerated by plating onto TSA plates and counting colonies the following day. Results are shown as % bacterial killing, where 100% killing represents data derived from the group of bacteria incubated with cathelicidins only.
# (§4) Figure S1. A) CRAMP expression was measured in uninfected Wt corneas or Wt corneas isolated at 4 h post-S. aureus USA300 infection. Briefly, eyes were enucleated, corneas were dissected, and isolated corneas were incubated with 10 mg/ml dispase II overnight at 4°C to peel off the corneal epithelium. Total RNA was purified from the corneal epithelium, and 1 ng of total RNA was analyzed by qRT-PCR for CRAMP or β-actin expression (n = 3, **p < 0.01). […] Bacterial killing was measured by plating serial dilutions onto TSA plates and counting colonies the following day. Results are shown as % bacterial survival (n = 4). Figure S2. […] Bacterial killing (%) was enumerated by plating serial dilutions onto TSA plates and counting colonies the following day (n = 5). B) Effects of pre-incubating S. aureus with glycosaminoglycans on bacterial killing by cathelicidins were examined by incubating 500 cfu of USA300 without or with 5 μg/ml HS, HP, DS, or CS for 30 min at 37°C. Bacteria were washed three times with buffer, incubated with 0.5 μM CRAMP for 2 h at 37°C, and % bacterial killing was determined by plating serial dilutions of samples (n = 4). Figure S3. S. aureus USA300 stained with BaclightGreen was incubated with 0.5 μM CRAMP in the absence or presence of 5 μg/ml HP, NDS-HP, 2ODS-HP, 6ODS-HP, H, NS-H, or NS2OS-H for 30 min at room temperature. Bacteria were washed and incubated with 10 μg/ml propidium iodide for 15 min on ice. Images were captured with a fluorescence microscope (Zeiss Axiovert 40 CFL). Quantification of % dead bacteria (out of total bacteria in field) is shown at the bottom. Figure S4. Alexa 647-conjugated CRAMP (0.5 μM) was incubated with fixed S. aureus USA300 without or with 5 μg/ml of the indicated glycosaminoglycans and chemically-desulfated HP compounds for 1 h at room temperature. S. aureus-associated CRAMP fluorescence was analyzed by flow cytometry. Representative FACS density plots are shown where heparan compounds containing 2-O-sulfated motifs decreased Alexa CRAMP binding by over 79% compared to the control (No GAG), except for NDS-HP where the reduction was approximately 65%. Fig. S5. Relative mRNA levels of A) Ndst1 and B) Sdc1 in the corneal epithelium of Hs2st^fl/fl, Krt12Cre, and Hs2st^fl/fl/Krt12Cre mice (n = 3).
# LL-37 = assay: Inhibition by glycosaminoglycans of S. aureus killing by LL-37; format: cell-based, human; details: 5 μg/mL glycosaminoglycan, 1 μM LL-37, ~500 cfu USA300, phosphate buffer pH 7.4, 2 h at 37°C, n = 6
# Experimental: as §1, §2, §3
# CAP-18 = assay: Inhibition by glycosaminoglycans of S. aureus killing by CAP-18; format: cell-based, rabbit; details: 5 μg/mL glycosaminoglycan, 0.5 μM CAP-18, ~500 cfu USA300, phosphate buffer pH 7.4, 2 h at 37°C, n = 6
# Experimental: as §1, §2, §3
# SMAP-29 = assay: Inhibition by glycosaminoglycans of S. aureus killing by SMAP-29; format: cell-based, sheep; details: 5 μg/mL glycosaminoglycan, 0.5 μM SMAP-29, ~500 cfu USA300, phosphate buffer pH 7.4, 2 h at 37°C, n = 6
# Experimental: as §1, §2, §3
# CRAMP [2] = assay: Alexa 647-CRAMP binding to fixed S. aureus, inhibition by glycosaminoglycans (flow cytometry); design: species or system mouse; details: 0.5 μM Alexa 647-conjugated CRAMP; for Decrease of MFI of Alexa-labeled CRAMP binding to S. aureus compared to control: 5 μg/mL glycosaminoglycan, 2% paraformaldehyde-fixed S. aureus USA300, 1 h at room temperature, n = 3; for Reduction of proportion of CRAMP-bound bacteria (Alexa CRAMP binding, FACS density plots) compared to No GAG: 5 μg/ml glycosaminoglycan, fixed S. aureus USA300, 1 h at room temperature, representative plots
# Experimental: Alexa 647-conjugated CRAMP (0.5 μM) was incubated with 2% paraformaldehyde-fixed Staphylococcus aureus USA300 without or with 5 μg/mL HP, HS, CS, DS, NDS-HP, 6ODS-HP, or 2ODS-HP for 1 h at room temperature. S. aureus-associated CRAMP fluorescence was analyzed by flow cytometry. Results are shown as % Alexa CRAMP binding (n = 3, ****p < 0.0001).
# Alexa 647 fluorophore was conjugated to CRAMP using the Lightning-Link Rapid FluoProbes647H labeling kit following the manufacturer’s instructions. S. aureus USA300 fixed in 2% paraformaldehyde for 20 min was resuspended in 20 μL of phosphate buffer and incubated with 0.5 μM of Alexa 647-labeled CRAMP for 30 min at room temperature without or with glycosaminoglycans. Unbound Alexa 647-labeled CRAMP was removed by washing with phosphate buffer, and Alexa 647-labeled CRAMP bound to bacteria was assessed by flow cytometry.
# as §4
# S. aureus USA300 [3] = details: 500 cfu S. aureus USA300, 2 h at 37°C, cfu on TSA plates, n = 4
# Experimental: Bacterial killing was measured by plating serial dilutions onto TSA plates and counting colonies the following day. Results are shown as % bacterial survival (n = 4). […] Bacterial killing (%) was enumerated by plating serial dilutions onto TSA plates and counting colonies the following day (n = 5). B) Effects of pre-incubating S. aureus with glycosaminoglycans on bacterial killing by cathelicidins were examined by incubating 500 cfu of USA300 without or with 5 μg/ml HS, HP, DS, or CS for 30 min at 37°C. Bacteria were washed three times with buffer, incubated with 0.5 μM CRAMP for 2 h at 37°C, and % bacterial killing was determined by plating serial dilutions of samples (n = 4). […] Images were captured with a fluorescence microscope (Zeiss Axiovert 40 CFL). Quantification of % dead bacteria (out of total bacteria in field) is shown at the bottom. […] S. aureus-associated CRAMP fluorescence was analyzed by flow cytometry.
# [4] = ref 44 (LL-37), ref 39 (CAP-18), ref 42 (SMAP-29); cited from earlier work
# Text: Next, we examined the dose response to cathelicidins from different species, which can have relatively large differences in primary sequence.
# CRAMP [5] = assay: Alexa 647-CRAMP binding to Affi-Gel HP beads, competition by HP compounds (flow cytometry); design: species or system mouse; details: 20 μg/mL competitor, 0.5 μM Alexa 647-conjugated CRAMP, 1 h at room temperature, n = 4
# Experimental: FIGURE 4 | 2-O-sulfated heparan compounds directly bind to CRAMP with high affinity. Alexa 647-conjugated CRAMP (0.5 μM) was incubated with Affi-Gel HP beads without or with 20 μg/mL of HP, NDS-HP, 2ODS-HP, or 6ODS-HP for 1 h at room temperature. CRAMP fluorescence associated with Affi-Gel HP beads was analyzed by flow cytometry. Results are shown as (A) % CRAMP binding and (B) mean fluorescence intensity (MFI) of CRAMP binding (n = 4, ***p < 0.001, ****p < 0.0001). ITC analyses for CRAMP binding to HP were performed at 25°C using a MicroCal iTC 200 titration calorimetry. The fitted heat curves of titrating CRAMP binding to (C) HP and (D) 2ODS-HP are shown.
# Affi-Gel HP beads were washed and resuspended in PBS. Affi-Gel HP beads (20 μL) were incubated with 0.5 μM Alexa 647-labeled CRAMP without or with 20 μg/mL HP, chemically desulfated HP, or chemoenzymatically sulfated H for 1 h at room temperature. Affi-Gel HP beads were washed with PBS, and the Alexa 647-labeled CRAMP bound to them was assessed by flow cytometry.
# S. aureus USA300 [6] = assay: Pre-incubation of S. aureus with glycosaminoglycans, washing, then killing by cathelicidin; format: cell-based, Staphylococcus aureus; details: 5 μg/ml glycosaminoglycan pre-incubated with 500 cfu USA300 30 min at 37°C, washed three times, then 0.5 μM CRAMP 2 h at 37°C, n = 4
# Experimental: Figure S1. A) CRAMP expression was measured in uninfected Wt corneas or Wt corneas isolated at 4 h post-S. aureus USA300 infection. Briefly, eyes were enucleated, corneas were dissected, and isolated corneas were incubated with 10 mg/ml dispase II overnight at 4°C to peel off the corneal epithelium. Total RNA was purified from the corneal epithelium, and 1 ng of total RNA was analyzed by qRT-PCR for CRAMP or β-actin expression (n = 3, **p < 0.01). […] Bacterial killing was measured by plating serial dilutions onto TSA plates and counting colonies the following day. Results are shown as % bacterial survival (n = 4). Figure S2. […] Bacterial killing (%) was enumerated by plating serial dilutions onto TSA plates and counting colonies the following day (n = 5). B) Effects of pre-incubating S. aureus with glycosaminoglycans on bacterial killing by cathelicidins were examined by incubating 500 cfu of USA300 without or with 5 μg/ml HS, HP, DS, or CS for 30 min at 37°C. Bacteria were washed three times with buffer, incubated with 0.5 μM CRAMP for 2 h at 37°C, and % bacterial killing was determined by plating serial dilutions of samples (n = 4). Figure S3. […] Images were captured with a fluorescence microscope (Zeiss Axiovert 40 CFL). Quantification of % dead bacteria (out of total bacteria in field) is shown at the bottom. […] S. aureus-associated CRAMP fluorescence was analyzed by flow cytometry. […]
Compound,Inhibition of S. aureus killing by CRAMP (CRAMP [1]),Inhibition of S. aureus killing by LL-37 (LL-37),Inhibition of S. aureus killing by CAP-18 (CAP-18),Inhibition of S. aureus killing by SMAP-29 (SMAP-29),Decrease of MFI of Alexa-labeled CRAMP binding to S. aureus compared to control (CRAMP [2]),"Reduction of proportion of CRAMP-bound bacteria (Alexa CRAMP binding, FACS density plots) compared to No GAG (CRAMP [2])",S. aureus killed (S. aureus USA300 [3]; 0.5 μM peptide),pI [4],Inhibition of CRAMP binding to HP beads (CRAMP [5]),S. aureus killed (S. aureus USA300 [3]; 1 μM peptide),"Inhibition of bacterial killing by CRAMP, titration study (CRAMP [1]; 5 μg/mL (~0.5 μM) HS, 500 cfu USA300, 2 h at 37°C, n = 5)",Inhibition of bacterial killing by cathelicidins after pre-incubation with bacteria and washing away (S. aureus USA300 [6])
chondroitin sulfate A [CS],no significant effect,no significant effect,no significant effect,no significant effect,no effect,not,,,,,,
dermatan sulfate [DS],did not inhibit,27%,21%,did not inhibit,no effect,not,,,,,,
CAP-18,,,,,,,Greater than 98%,11.9,,,,
6-O-desulfated HP [6ODS-HP],did not alter the ability of HP to significantly inhibit,did not alter the ability of HP to significantly inhibit,did not alter the ability of HP to significantly inhibit,did not alter the ability of HP to significantly inhibit,,,,,over 75%,,,
heparosan,minimal effect,minimal effect,minimal effect,minimal effect,,,,,,,,
CC[C@H](C)[C@H](NC(=O)[C@H](CCCCN)NC(=O)[C@H](CCC(=O)O)NC(=O)[C@H](CCCCN)NC(=O)[C@H](CO)NC(=O)[C@H](CCCCN)NC(=O)[C@H](CCCNC(=N)N)NC(=O)[C@H](Cc1ccccc1)NC(=O)[C@H](Cc1ccccc1)NC(=O)[C@H](CC(=O)O)NC(=O)CNC(=O)[C@H](CC(C)C)NC(=O)[C@@H](N)CC(C)C)C(=O)NCC(=O)N[C@@H](CCCCN)C(=O)N[C@@H](CCC(=O)O)C(=O)N[C@@H](Cc1ccccc1)C(=O)N[C@@H](CCCCN)C(=O)N[C@@H](CCCNC(=N)N)C(=O)N[C@H](C(=O)N[C@H](C(=O)N[C@@H](CCC(N)=O)C(=O)N[C@@H](CCCNC(=N)N)C(=O)N[C@H](C(=O)N[C@@H](CCCCN)C(=O)N[C@@H](CC(=O)O)C(=O)N[C@@H](Cc1ccccc1)C(=O)N[C@@H](CC(C)C)C(=O)N[C@@H](CCCNC(=N)N)C(=O)N[C@@H](CC(N)=O)C(=O)N[C@@H](CC(C)C)C(=O)N[C@H](C(=O)N1CCC[C@H]1C(=O)N[C@@H](CCCNC(=N)N)C(=O)N[C@H](C(=O)N[C@@H](CCC(=O)O)C(=O)N[C@@H](CO)C(=O)O)[C@@H](C)O)C(C)C)[C@@H](C)CC)C(C)C)[C@@H](C)CC [LL-37],,,,,,,,10.5,,Greater than 98%,,
heparan sulfate [HS],over 70%,over 70%,over 70%,over 70%,,,,,,,significantly inhibited,did not inhibit
N-desulfated HP [NDS-HP],did not alter the ability of HP to significantly inhibit,did not alter the ability of HP to significantly inhibit,did not alter the ability of HP to significantly inhibit,did not alter the ability of HP to significantly inhibit,,approximately 65%,,,over 75%,,,
